Measurements reported in US6461997B1, “Triazole sulfones having herbicidal activity” (Monsanto Technology LLC, priority 1999, dated 2002).

How the values were obtained:
SOLNI (black nightshade) = assay: Pre-emergence herbicidal activity, warm season; type: in vivo, Solanum nigrum; conditions: GR80 = lowest tested rate (300, 100, 30, 10 g/ha) with 80% or greater inhibition; approx. 14 days after treating; 30/21° C.
In short: (§1)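 GR80 values derive from percent inhibition relative to untreated plants, read roughly 14 days after sowing and pre-emergence soil-surface treatment (compound in 50:50 acetone/water; rates typically 10, 30, 100, 300 g/ha). Warm-season weeds grew at 30/21° C day/night, cool-season ones at 18/13° C; an asterisk marks activity without reaching 80% at the highest rate.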

AMARE (redroot pigweed) = assay: Pre-emergence herbicidal activity, warm season; type: in vivo, Amaranthus retroflexus; conditions: GR80 = lowest tested rate (300, 100, 30, 10 g/ha) with 80% or greater inhibition; approx. 14 days after treating; 30/21° C.
In short: as §1

[1] = tested on: CHEAL (common lambsquarters); assay: Pre-emergence herbicidal activity, warm season; type: in vivo, Chenopodium album; conditions: GR80 = lowest tested rate (300, 100, 30, 10 g/ha) with 80% or greater inhibition; approx. 14 days after treating; 30/21° C.
In short: as §1

[2] = tested on: CIRAR (canada thistle (seedling)); assay: Pre-emergence herbicidal activity, warm season; type: in vivo, Cirsium arvense; conditions: GR80 = lowest tested rate (300, 100, 30, 10 g/ha) with 80% or greater inhibition; approx. 14 days after treating; 30/21° C.
In short: as §1

ECHCG (barnyardgrass) = assay: Pre-emergence herbicidal activity, warm season; type: in vivo, Echinochloa crus-galli; conditions: GR80 = lowest tested rate (300, 100, 30, 10 g/ha) with 80% or greater inhibition; approx. 14 days after treating; 30/21° C.
In short: as §1

[3] = tested on: PANMI (wild proso millet); assay: Pre-emergence herbicidal activity, warm season; type: in vivo, Panicum miliaceum; conditions: GR80 = lowest tested rate (300, 100, 30, 10 g/ha) with 80% or greater inhibition; approx. 14 days after treating; 30/21° C.
In short: as §1

[4] = tested on: SORHA (johnsongrass (seedling)); assay: Pre-emergence herbicidal activity, warm season; type: in vivo, Sorghum halepense; conditions: GR80 = lowest tested rate (300, 100, 30, 10 g/ha) with 80% or greater inhibition; approx. 14 days after treating; 30/21° C.
In short: as §1

SETFA (giant foxtail) = assay: Pre-emergence herbicidal activity, warm season; type: in vivo, Setaria faberi; conditions: GR80 = lowest tested rate (300, 100, 30, 10 g/ha) with 80% or greater inhibition; approx. 14 days after treating; 30/21° C.
In short: as §1

[5] = tested on: BRAPP (broadleaf signalgrass); assay: Pre-emergence herbicidal activity, warm season; type: in vivo, Brachiaria platyphylla; conditions: GR80 = lowest tested rate (300, 100, 30, 10 g/ha) with 80% or greater inhibition; approx. 14 days after treating; 30/21° C.
In short: as §1

DIGSA (large crabgrass) = assay: Pre-emergence herbicidal activity, warm season; type: in vivo, Digitaria sanguinalis; conditions: GR80 = lowest tested rate (300, 100, 30, 10 g/ha) with 80% or greater inhibition; approx. 14 days after treating; 30/21° C.
In short: as §1

[6] = tested on: GALAP (catchweed bedstraw); assay: Pre-emergence herbicidal activity, cool season; type: in vivo, Galium aparine; conditions: lowest tested rate with 80% or greater inhibition; rates 300, 100, 30, 10 g/ha; about 14 days
In short: as §1

POLCO (wild buckwheat) = assay: Pre-emergence herbicidal activity, cool season; type: in vivo, Polygonum convolvulus; conditions: lowest tested rate with 80% or greater inhibition; rates 300, 100, 30, 10 g/ha; about 14 days
In short: as §1

SINAR (wild mustard) = assay: Pre-emergence herbicidal activity, cool season; type: in vivo, Sinapis arvensis; conditions: lowest tested rate with 80% or greater inhibition; rates 300, 100, 30, 10 g/ha; about 14 days
In short: as §1

KCHSC (kochia) = assay: Pre-emergence herbicidal activity, cool season; type: in vivo, Kochia scoparia; conditions: lowest tested rate with 80% or greater inhibition; rates 300, 100, 30, 10 g/ha; about 14 days
Procedure: (§2) Tables 5 to 8 summarize results of tests conducted as described below to determine the pre-emergence herbicidal activity, in the form of a GR80 value, of illustrative compounds of this invention. […] Compounds of the invention were typically applied at rates of 300, 100, 30, and 10 g/ha. Where herbicidal activity was evident but 80% inhibition was not achieved at the highest rate tested, an asterisk (*) is shown in the following tables.
(§3) The pre-emergence tests were conducted by the following procedure. Topsoil was sieved to pass through a 1.27 cm screen. Fertilizer was added to the topsoil and the mixture was then sterilized by heating. The topsoil mixture was placed in a pot and compacted to a depth of 1.0 to 1.25 cm from the top of the pot. Seeds of each of several monocotyledonous and dicotyledonous annual plant species were placed on top of the soil. Additional soil was subsequently placed over the seeds to level-fill the pot. A known amount of each test compound dissolved or suspended in an appropriate organic solvent was diluted with a 50:50 mix of acetone and water and applied to the surface of the soil. After treatment the plants were placed in a greenhouse where they received 0.64 cm of overhead irrigation. All subsequent watering consisted of a light overhead mist and/or subirrigation as needed for germination and growth. Tables 5 and 6 below relate to warm season plant species which were placed after pre-emergence treatment in a greenhouse with a 30/21° C. day/night temperature regime. Tables 7 and 8 below relates to cool season plant species placed after pre-emergence treatment in a greenhouse or growth chamber with an 18/13° C. day/night temperature regime.
(§4) Approximately 14 days after planting and treating, the plants were observed and herbicidal efficacy recorded as percent inhibition by comparison with untreated plants.
(§5) The plant species usually regarded as weeds which were utilized in the tests are identified in the tables below according to the following legend, in which “d” indicates a dicotyledonous species and “m” a monocotyledonous species. All monocotyledonous species included in the tests herein are grasses.

[7] = tested on: VERPE (creeping speedwell); assay: Pre-emergence herbicidal activity, cool season; type: in vivo, Veronica persicaria; conditions: lowest tested rate with 80% or greater inhibition; rates 300, 100, 30, 10 g/ha; about 14 days
In short: as §1

SASKR (russian thistle) = assay: Pre-emergence herbicidal activity, cool season; type: in vivo, Salsola kali; conditions: lowest tested rate with 80% or greater inhibition; rates 300, 100, 30, 10 g/ha; about 14 days
In short: as §1

STEME (common chickweed) = assay: Pre-emergence herbicidal activity, cool season; type: in vivo, Stellaria media; conditions: lowest tested rate with 80% or greater inhibition; rates 300, 100, 30, 10 g/ha; about 14 days
In short: as §1

[8] = tested on: LAMPU (purple deadnettle); assay: Pre-emergence herbicidal activity, cool season; type: in vivo, Lamium purpureum; conditions: lowest tested rate with 80% or greater inhibition; rates 300, 100, 30, 10 g/ha; about 14 days
In short: as §1

ALOMY (blackgrass) = assay: Pre-emergence herbicidal activity, cool season; type: in vivo, Alopecurus myosuroides; conditions: GR80 = lowest tested rate (300, 100, 30, 10 g/ha) with 80% or greater inhibition; approx. 14 days after treating; 18/13° C.
In short: as §1

SETVI (green foxtail) = assay: Pre-emergence herbicidal activity, cool season; type: in vivo, Setaria viridis; conditions: GR80 = lowest tested rate (300, 100, 30, 10 g/ha) with 80% or greater inhibition; approx. 14 days after treating; 18/13° C.
In short: as §1

[9] = tested on: AGSST (creeping bentgrass); assay: Pre-emergence herbicidal activity, cool season; type: in vivo, Agrostis stolonifera; conditions: GR80 = lowest tested rate (300, 100, 30, 10 g/ha) with 80% or greater inhibition; approx. 14 days after treating; 18/13° C.
In short: as §1

[10] = tested on: AGRRE (quackgrass (seedling)); assay: Pre-emergence herbicidal activity, cool season; type: in vivo, Elymus repens; conditions: GR80 = lowest tested rate (300, 100, 30, 10 g/ha) with 80% or greater inhibition; approx. 14 days after treating; 18/13° C.
Procedure: as §2, §3, §4, §5

DATST (jimsonweed) = assay: Pre-emergence herbicidal activity, warm season; type: in vivo, Datura stramonium; conditions: GR80 = lowest tested rate (300, 100, 30, 10 g/ha) with 80% or greater inhibition; approx. 14 days after treating; 30/21° C.
Procedure: as §2, §3, §4, §5

PANDI (fall panicum) = assay: Pre-emergence herbicidal activity, warm season; type: in vivo, Panicum dichotomiflorum; conditions: GR80 = lowest tested rate (300, 100, 30, 10 g/ha) with 80% or greater inhibition; approx. 14 days after treating; 30/21° C.
In short: as §1

Row | SMILES | Pre-emergence activity (GR80) AMARE (AMARE (redroot pigweed)) [g/ha] | Pre-emergence activity (GR80) CHEAL [1] [g/ha] | Pre-emergence activity (GR80) ECHCG (ECHCG (barnyardgrass)) [g/ha] | Pre-emergence activity (GR80) PANMI [3] [g/ha] | Pre-emergence activity (GR80) SORHA [4] [g/ha] | Pre-emergence activity (GR80) SETFA (SETFA (giant foxtail)) [g/ha] | Pre-emergence activity (GR80) BRAPP [5] [g/ha] | Pre-emergence activity (GR80) DIGSA (DIGSA (large crabgrass)) [g/ha] | Pre-emergence activity GR80, GALAP [6] | Pre-emergence activity GR80, POLCO (POLCO (wild buckwheat)) | Pre-emergence activity GR80, SINAR (SINAR (wild mustard)) | Pre-emergence activity GR80, KCHSC (KCHSC (kochia)) | Pre-emergence activity GR80, VERPE [7] | Pre-emergence activity GR80, SASKR (SASKR (russian thistle)) | Pre-emergence activity GR80, STEME (STEME (common chickweed)) | Pre-emergence activity GR80, LAMPU [8] | Pre-emergence activity (GR80) ALOMY (ALOMY (blackgrass)) | Pre-emergence activity (GR80) AGSST [9] [g/ha] | Pre-emergence activity (GR80) AGRRE [10] | other results
1 | CCN(CC)C(=O)n1cnc(S(=O)(=O)C(F)(F)c2ccccc2)n1 [Example 5] | 100 | 300 | 300 | 100 | 100 | 100 | 300 | 100 | [empty] | [empty] | 100 g/ha | [empty] | 100 g/ha | 300 g/ha | [empty] | [empty] | * (activity observed, at least at highest rate, but <80% inhibition) | 30 | * (activity observed, at least at highest rate, but <80% inhibition) | Pre-emergence activity (GR80) SOLNI (SOLNI (black nightshade)): 300 g/ha; Pre-emergence activity (GR80) CIRAR [2]: 100 g/ha; Pre-emergence activity (GR80) SETVI (SETVI (green foxtail)): 100 g/ha
2 | CCOC(=O)C(F)(F)S(=O)(=O)c1ncn(C(=O)N(CC)CC)n1 [Example 7] | 300 | 300 | 300 | 300 | 300 | 300 | 300 | 300 | [empty] | [empty] | * (activity observed, at least at highest rate, but <80% inhibition) | [empty] | [empty] | [empty] | 30 g/ha | [empty] | * (activity observed, at least at highest rate, but <80% inhibition) | 300 | 300 g/ha | Pre-emergence activity (GR80) DATST (DATST (jimsonweed)): 300 g/ha; Pre-emergence activity (GR80) PANDI (PANDI (fall panicum)): 300 g/ha
